Experimental data published in patent US7109177B2, “Methods and compositions for the manufacture of C-3′ and C-4′ anthracycline antibiotics” (Houston Pharmaceuticals, Inc., priority 1999, dated 2006).
Several values for one entry are separate records, joined by “and”; a condition that tells them apart may be missing. Equal entries are not always repeated. Where two headings read alike, the source gives them in different places.

Key:
[1] = test system: KB-V1 (KBV1) carcinoma cells; assay: MTT cytotoxicity assay, multi-drug-resistant KB-V1 cells (MDR1/P-gp); assay type: cell-based, human; parameters: ID50 KBV1: unit not given here; conditions: for Effectiveness as measured by resistance index (RI), in words: in vitro, compared with daunorubicin or doxorubicin
Procedure: (§1) In vitro drug cytotoxicities against human breast carcinoma wild-type MCF-7 and MRP-resistant MCF-7NP-16 cells were assessed by using the […], as previously reported (Green et al., 1984). […] Drugs were then added to the wells to achieve a final drug concentration ranging from 0.1 to 50 μg/mL. Four wells were used for each concentration. […] After a 4-hour incubation, 100 μL of buffer containing 50% N,N-dimethylformamide and 20% SDS was added to solubilize the MTT formazan. […] Results and Discussion
(§2) Thus, for the in vitro evaluation of substituted anthracyclines having C-3′ alkylated anthracyclines modified at benzyl ring and having 4′-substituted-benzylated anthracyclines, the inventors selected two sensitive cell lines: a human carcinoma KB and MCF-7 human breast cancer, the multi-drug-resistant (MDR) counterpart of KB (KBV1 carcinoma), which overexpresses MDR1 gene that encodes a membrane transport glycoprotein (P-gp), the MCF-7NVP-16 cell line that overexpresses the multi-drug-resistant associated protein (MRP), and the MCF-7/dox cell line which overexpresses MDR1 gene.

[2] = test system: human carcinoma KB cells; assay: MTT cytotoxicity assay, sensitive KB cells; assay type: cell-based
Procedure: as §1, §2

[3] = test system: MCF-7/VP-16 cells
Procedure: Compounds synthesized using the methods described above were tested using a standard MTT. assay (Green et al., 1984) against human carcinoma sensitive (KB) and multi drug-resistant (KBV1) cells and MCF-7 and MCF-7/VP-16 resistant cells characterized as having the MRP (multi-drug resistant associated protein) phenotype.
In vitro drug cytotoxicities against human breast carcinoma wild-type MCF-7 and MRP-resistant MCF-7NP-16 cells were assessed by using the MT reduction assay, as previously reported (Green et al., 1984). […] Drugs were then added to the wells to achieve a final drug concentration ranging from 0.1 to 50 μg/mL. Four wells were used for each concentration. […] After a 4-hour incubation, 100 μL of buffer containing 50% N,N-dimethylformamide and 20% SDS was added to solubilize the MTT formazan.

[4] = test system: MCF-7/DOX cells; assay: MTT cytotoxicity assay, MCF-7/DOX cells (MDR1)
[5] = test system: CEM leukemic cells; assay: Quantitative apoptotic DNA fragmentation assay; assay type: cell-based; conditions: 24 h incubation
Source text: Results are from two independent studies carried out in duplicate.

[6] = test system: human breast carcinoma MCF-7 cells; parameters: unit not given beside the values
[7] = test system: breast tumors; assay: In vivo prevention of tumor development in a mouse cancer model; conditions: compared with buffer-treated control mice that develop tumors
Procedure: In an initial round of in vivo trials, a mouse model of human cancer with the histologic features and metastatic potential resembling tumors seen in humans (Katsumata et al., 1995) is used. The animals are treated with analogs of anthracyclines having C-3′-substitutions as described or anthracycline analogs with C-4′-substitutions synthesized in the present invention to determine the suppression of tumor development.
Two groups of mice of a suitable cancer model are treated with doses of substituted anthracyclines with substitutions at the C-3′-sugar or having C-4′-substituted sugar moietied. Several combinations and concentrations of the substituted anthracyclines are tested. Control mice are treated with buffer only.
The effect of substituted anthracyclines on the development of breast tumors is compared with the control group by examination of tumor size and histopathologic examination (breast tissue is cut and stained with hematoxylin and eosin) of breast tissue.

[8] = test system: sensitive and MDR tumor cell lines; assay: In vitro evaluation of cytotoxicity compared with DOX (cell line not given); assay type: cell-based, human; conditions: for Cytotoxicity compared to DOX, in words: in vitro evaluation; for Direct comparison of cytotoxicity with DOX, in words: effect of C-3′ and C-4′ substitutions on potency
Procedure: as §1, §2

[9] = Table 2, MTT assay, mean of at least 4 experiments

COc1cccc2c1C(=O)c1c(O)c3c(c(O)c1C2=O)C[C@@](O)(C(=O)CO)C[C@@H]3O[C@H]1C[C@H](N)[C@H](O)[C@H](C)O1 [DOX, doxorubicin, reference compound]
ID50 KB-V1 [1, 9]: >100 µg/mL and 109 ± 28 µg/mL
RI (resistance index) KB-V1 vs KB ([1]; Table 2, higher RI = less effective against MDR): >200
ID50 KBV1 ([1]; Table 3, EXP. 1): >100
RI (KBV1 vs KB) ([1]; Table 3, EXP. 1): >42.6
ID50 KBV1 ([1]; Table 3, under EXP. 2): 174 ± 32 and >100
ID50 KB [2, 9]: 0.50 ± 0.0 µg/mL and 0.43 ± 0.19 µg/mL
ID50 KB ([2]; Table 3, EXP. 1): 2.35
ID50 MCF-7/VP-16 ([3]; Table 3, EXP. 1): 3.0
RI (MCF-7/VP-16 vs MCF-7) ([3]; Table 3, EXP. 1): 10
ID50 MCF-7/VP-16 ([3]; Table 3, under EXP. 2): 8.3 ± 0.5 and 6.87 ± 0.58
RI (MCF-7/VP-16 vs MCF-7) ([3]; Table 3, under EXP. 2): 16.6 and 13
ID50 MCF-7/DOX ([4]; Table 3, EXP. 1): >100
RI (MCF-7/DOX vs MCF-7) ([4]; Table 3, EXP. 1): >333
ID50 MCF-7/DOX ([4]; Table 3, under EXP. 2): >100
RI (MCF-7/DOX vs MCF-7) ([4]; Table 3, under EXP. 2): >189
Fragmented DNA, % Total DNA ([5]; 0.1 μM): −0.2%
Fragmented DNA, % Total DNA ([5]; 0.5 μM): 27.1%
Fragmented DNA, % Total DNA ([5]; 1 μM): 28.7%
Fragmented DNA, % Total DNA ([5]; 2 μM): 38.3%
ID50 MCF-7 ([6]; Table 3, EXP. 1): 0.3
ID50 MCF-7 ([6]; Table 3, under EXP. 2): 0.50 ± 0.26 and 0.53 ± 0.25

CC(=O)O[C@H]1[C@@H](N=[N+]=[N-])C[C@@H](O[Si](C)(C)C(C)(C)C)O[C@H]1C [WP417, 4-O-acetyl-3-Azido-1-O-t-butyldimethylsilyl-2,3,6-trideoxy-β-L-lyxo hexapyranose]
Tumor development in treated mice, predicted [7]: resistant to tumor development

C[C@@H]1O[C@H](O[Si](C)(C)C(C)(C)C)C[C@H](N=[N+]=[N-])[C@@H]1O [WP418, t-Butyldimethylsilyl 3-azido- -2,3,6-trideoxy-β-L-lyxo hexapyranose]
Tumor development in treated mice, predicted [7]: resistant to tumor development

CCCCC(=O)OCC(=O)[C@]1(O)Cc2c(O)c3c(c(O)c2[C@@H](O[C@H]2C[C@H](O)[C@H](OCc4ccccc4)[C@H](C)O2)C1)C(=O)c1c(OC)cccc1C3=O [WP571, 3-deamino-4-O-benzyl-3-O-hydroxy-14-O-pentanoyl-doxorubicin]
Cytotoxicity compared to DOX, in words [8]: unusually potent cytotoxic agents
Tumor development in treated mice, predicted [7]: resistant to tumor development

COc1cccc2c1C(=O)c1c(O)c3c(c(O)c1C2=O)C[C@@](O)(C(=O)CO)C[C@@H]3O[C@H]1C[C@H](O)[C@H](OCc2ccccc2)[C@H](C)O1 [WP727, 4-O-benzyl-3-deamino-3-hydroxy-doxorubicin]
Cytotoxicity compared to DOX, in words [8]: unusually potent cytotoxic agents
Tumor development in treated mice, predicted [7]: resistant to tumor development

COc1cccc2c1C(=O)c1c(O)c3c(c(O)c1C2=O)C[C@@](O)(C(=O)CO)C[C@@H]3O[C@H]1C[C@H](N)[C@H](OCc2ccccc2)[C@H](C)O1 [WP744, 4′-O-Benzyl-doxorubicin]
ID50 KBV1 ([1]; Table 3, EXP. 1): 2.76 ± 0.52
RI (KBV1 vs KB) ([1]; Table 3, EXP. 1): 1.84
ID50 KBV1 ([1]; Table 3, under EXP. 2): 2.1 ± 0.5 and 4.07 ± 1.85
Effectiveness as measured by resistance index (RI), in words [1]: significantly more effective
Cytotoxicity compared to DOX, in words [8]: unusually potent cytotoxic agents
ID50 KB ([2]; Table 3, EXP. 1): 1.44 ± 0.45
ID50 MCF-7/VP-16 ([3]; Table 3, EXP. 1): 2.3 ± 1.9
RI (MCF-7/VP-16 vs MCF-7) ([3]; Table 3, EXP. 1): 1.41
RI (MCF-7/VP-16 vs MCF-7) ([3]; Table 3, under EXP. 2): 1.4 and 1.6
ID50 MCF-7/DOX ([4]; Table 3, EXP. 1): 5.25
RI (MCF-7/DOX vs MCF-7) ([4]; Table 3, EXP. 1): 3.22
ID50 MCF-7/DOX ([4]; Table 3, under EXP. 2): 0.89 ± 0.10
RI (MCF-7/DOX vs MCF-7) ([4]; Table 3, under EXP. 2): 2.41
Tumor development in treated mice, predicted [7]: resistant to tumor development
Fragmented DNA, % Total DNA ([5]; 0.05 μM): 17.8%
Fragmented DNA, % Total DNA ([5]; 0.1 μM): 31.3%
Fragmented DNA, % Total DNA ([5]; 0.5 μM): 46.7%
ID50 MCF-7 ([6]; Table 3, EXP. 1): 1.63 ± 0.5

COc1cccc2c1C(=O)c1c(O)c3c(c(O)c1C2=O)C[C@@](O)(C(=O)CO)C[C@@H]3O[C@H]1C[C@H](N)[C@@H](OCc2ccccc2)[C@H](C)O1 [WP750, 4′-O-Benzyl-4′epi-doxorubicin]
ID50 KBV1 ([1]; Table 3, under EXP. 2): 56 ± 29
RI (KBV1 vs KB) ([1]; Table 3, under EXP. 2): 8.8
Effectiveness as measured by resistance index (RI), in words [1]: significantly more effective
Direct comparison of cytotoxicity with DOX, in words [8]: drastically increase the potency
Cytotoxicity compared to DOX, in words [8]: unusually potent cytotoxic agents
ID50 KB ([2]; Table 3, under EXP. 2): 6.4
Tumor development in treated mice, predicted [7]: resistant to tumor development

CC(=O)[C@]1(O)Cc2c(O)c3c(c(O)c2[C@@H](O[C@H]2C[C@H](N)[C@H](OCc4ccccc4)[C@H](C)O2)C1)C(=O)c1ccccc1C3=O [WP783, 4′-O-Benzyl-4-demethoxydaunorubicin]
ID50 KBV1 ([1]; Table 3, under EXP. 2): 1.1 ± 0.8
RI (KBV1 vs KB) ([1]; Table 3, under EXP. 2): 2.6
Effectiveness as measured by resistance index (RI), in words [1]: significantly more effective
Direct comparison of cytotoxicity with DOX, in words [8]: drastically increase the potency
Cytotoxicity compared to DOX, in words [8]: unusually potent cytotoxic agents
ID50 KB ([2]; Table 3, under EXP. 2): 0.43 ± 0.21
Tumor development in treated mice, predicted [7]: resistant to tumor development

CC(=O)[C@]1(O)Cc2c(O)c3c(c(O)c2[C@@H](O[C@H]2C[C@H](N)[C@H](OCc4ccc(F)cc4)[C@H](C)O2)C1)C(=O)c1ccccc1C3=O [WP797, 4′-(4-Fluoro-benzyloxy)-4-demethoxydaunorubicine]
Cytotoxicity compared to DOX, in words [8]: unusually potent cytotoxic agents
Tumor development in treated mice, predicted [7]: resistant to tumor development

COc1cccc2c1C(=O)c1c(O)c3c(c(O)c1C2=O)C[C@@](O)(C(=O)CO)C[C@@H]3O[C@H]1C[C@H](N)[C@H](OCc2c(F)cccc2F)[C@H](C)O1 [WP799, 4′-(2,6-difluoro-benzyloxy)-doxorubicine]
Cytotoxicity compared to DOX, in words [8]: unusually potent cytotoxic agents
Tumor development in treated mice, predicted [7]: resistant to tumor development
